According to patent US8309530B2, “Compositions and methods for modulating ghrelin-mediated conditions” (Washington State University, priority 2009, dated 2012):
Entries after “also recorded” stand apart in the source; their conditions may differ.

Assays:
ghrelin mRNA = experiment: initial screening of ghrelin siRNAs using cultured cells: suppression of ghrelin mRNA in vitro; type: cell-based, mouse
Description: In certain preferred embodiments, baseline food intake for the 12-h light and dark period is measured over a 48-h time period in rats (n=16) that receive no treatment. On the third day, rats are separated randomly into two groups. One group of rats (n=8) is treated with scrambled ghrelin siRNA, the other group of rats receive ghrelin siRNA in the same volume administered orally by using an intragastric gavage. The dose and the specific siRNA is determined by an initial screening of ghrelin siRNAs using cultured cells. The siRNA that induces a significant suppression of ghrelin mRNA (for example, Applicants have shown that GGUUCAAUGCUCCCUUCGAtt (SEQ ID NO:17) suppressed ghrelin mRNA levels by 40% in vitro) compared to scrambled or saline control is, then, used in vivo. Food intake is measure before dark and light onset on each experimental day and for 5 additional days after the siRNA treatment. Body weight is monitored once a day. Additionally, rats are implanted with EEG and EMG electrodes for sleep-wake recordings.

ghrelin KO mice [1] = experiment: bolus injections of obestatin in ghrelin KO mice (preliminary data); type: in vivo; details: preliminary data (not shown)
From the text: (§1) Likewise, in addition to ghrelin, another product of the ghrelin gene is obestatin. The effects of obestatin on food intake and metabolism appear to be the opposite of those of ghrelin although the results are still inconclusive (2, 10-14). If obestatin has a leptin-like role in the regulation of metabolism, then decreased resistance to metabolic challenge in ghrelin KO mice could be explained by the lack of this hormone. Based on this idea, Applicants attempted to rescue the herein disclosed impaired phenotype by replacing obestatin in ghrelin KO mice. There are several potential ways to do this, although each has its own limitations. The effects of a single bolus injection of obestatin are limited by the half-life of the peptide (22±2 min). […] Because of those limitations, obestatin was replaced using osmotic minipumps. This method also has limitations. The minipumps are filled and implanted at least 10 days before the challenge to allow enough time for recovery and to carry out the experiment. The stability of obestatin in solution at body temperature for such extended time period is unknown. Moreover, some of the biological effects of obestatin show a bell-shaped dose-response relationship. It is unknown whether the amount of obestatin released from the minipumps provides the optimal plasma levels or appropriate pulsatile or ultradian secretion patterns.

ghrelin KO mice [2] = experiment: obestatin replacement by osmotic minipump in ghrelin KO mice, fasting in cold environment; type: in vivo
From the text: as §1, with “It is unknown whether the amount of obestatin released from the minipumps provides the optimal plasma levels or appropriate pulsatile or ultradian secretion patterns.” left out
Body temperature data are expressed as difference from baseline in 10-min averages.

SEQ ID NO:17: ghrelin siRNA (mouse), sequence GGUUCAAUGCUCCCUUCGAtt (GGUUCAAUGCUCCCUUCGATT; chemistry not given here)
suppression of ghrelin mRNA levels (ghrelin mRNA): 40%

obestatin
hypothermia in ghrelin KO mice (ghrelin KO mice [1]): attenuated hypothermia
development of hypothermia / hypothermic response (ghrelin KO mice [2]; osmotic minipump, fasting day): significantly attenuated; also recorded: significantly delayed
entered hypothermia later than those that received saline (ghrelin KO mice [2]; subcutaneous infusion of 300 nmol/kg/day for 10 days by osmotic minipump): about 6 hours
